From patent US5037826A, “1-substituted naphthyridine and pyridopyrazine derivatives” (Schering Corporation, priority 1986, dated 1991)

Columns and labels:
[1] = Carboni et al., Farmaco, Ed. Sci., 1973; cited from earlier work
[2] = tested on: antigen induced broncho-constriction in sensitized guinea pigs; test: Inhibition of anaphylactic bronchospasm in sensitized guinea pigs (ovalbumin challenge); format: in vivo, guinea pig; conditions: 2 hours before ovalbumin challenge, vs vehicle-treated control
Description: The compounds of this invention may be employed as anti-allergy agents in the treatment of, for example, asthma, allergic or seasonal rhinitis, and/or chronic bronchitis. The anti-allergy method of this invention is identified by tests which measure a compound's inhibition of anaphylactic bronchosoasm in sensitized guinea pigs having antigen induced broncho-constriction.
In one such test procedure, male Hartley guinea pigs (250-300 g) are sensitized with 5 mg ovalbumin injected i.p. and 5 mg injected s.c. in 1 ml saline on day 1 and 5 mg ovalbumin injected i.p. on day 4. The sensitized animals are used 3-4 weeks later at which time they weigh 450-500 g.
The sensitized guinea pigs are fasted overnight and the following morning are anesthetized with 0.9 ml/kg i.p. of dialurethane (0.1 g/ml diallybarbituric acid, 0.4 g/ml ethylurea and 0.4 g/ml urethane). The trachea are cannulated and the animals are ventilated by a Harvard® rodent respirator at 50 strokes/minute with a stroke volume of 5 ml. A side arm to the tracheal cannula is connected to a pressure transducer (Harvard) to obtain a continuous measure of intratracheal pressure which is recorded on a polygraph (Harvard). The jugular vein is cannulated for the i.v. administration of substances. The animals are challenged with antigen (0.5% ovalbumin) as an aerosol generated from a DeVilbiss® Model 65 ultrasonic nebulizer and delivered through the tracheal cannula for 30 seconds. Bronchoconstriction is measured as the peak increase in intratracheal pressure occurring within 5 minutes after antigen challenge.
The sensitized guinea pigs are injected i.v. with 1 mg/kg propranolol, 5 mg/kg indomethacin and 2 mg/kg mepyramine given together in a volume of 1 ml/kg. Fifteen minutes later the animals are challenged with nebulized ovalbumin. Test compounds are administered orally 2 hours before challenge with ovalbumin. Suppression of anaphylactic bronchospasm is expressed as a percent inhibition of the peak increase in intratracheal pressure by comparison to a vehicle-treated control group.

[3] = tested on: reverse passive Arthus reaction in the pleural cavity of rats; test: Reverse passive Arthus reaction in the pleural cavity of rats (Myers et al.); format: in vivo; conditions: Rattus norvegicus, po; pleural fluid
Description: Another procedure for testing for acute anti-inflammatory activity measures the reverse passive Arthus reaction in the pleural cavity of rats as described in Myers et al., Inflammation, Vol. 9, No. 1, 1985, pp. 91-98. Compound A provided an ED50 value (fluid) of about 5.0 mg/kg p.o. in such procedure.

[4] = tested on: GVHR splenomegaly in C57 B1/6XA/J(F6AF1) male mice; test: Graft vs. host reaction (GVHR), spleen weight; format: in vivo, mouse; conditions: 100 mg/kg orally for 10 days; compared to untreated animals
Description: To induce a GVHR, C57 B1/6XA/J(F6AF1) male mice were injected intravenously with parental (C57B/6J) spleen and lymph node cells. 3-(2-Hydroxyethyl)-1-phenyl-1,8-naphthyridin-2(1H)-one (Compound A) was then administered orally for 10 days beginning on the day prior to the cell transfer. On the day following the last treatment, the animals were sacrificed, and their spleens were excised and weighed. The enlargement of the spleen of the host is a result of a GVHR. To some extent it is the host's own cells which infiltrate and enlarge the spleen although they do this because of the presence of graft cells reacting against the host. The amount of spleen enlargement, splenomegaly, is taken as a measure of the severity of the GVHR.
In carrying out the GVHR the animal in the experimental group is injected with parental cells, cells of the same species but of different genotype, which cause a weight increase of the spleen. […] The effectiveness of the compounds administered to the mice in the experimental group is measured by comparing the spleen weight of the untreated and treated GVH animal with that of the syngeneic control. Compound A in this test procedure reduced spleen weight by 92% at a dose of 100 mg/kg as compared to the untreated animals.

[5] = tested on: spleen weight of BDF1 mice; test: Splenic atrophy, decrease in spleen weight; format: in vivo; conditions: Mus musculus, oral, seven consecutive days
Description: The immunosuppressive activity of the compounds may also be shown by a decrease in spleen weight after dosing BDF1 mice orally with the drug for seven (7) consecutive days. The mice are sacrificed on the eighth day. The percent decrease in spleen weight is measured for each dosage level. In this procedure, Compound A provided an ED30 of less than 25 mg/kg.

[6] = tested on: Reversed Passive Arthus Response in the right rear paw of rats; test: Reversed Passive Arthus Response (RPAR), rat paw volume; format: in vivo; conditions: 25 mg/kg p.o. once daily for 3 days
Description: Male Lewis inbred albino rats weighing 180-200 grams obtained from Charles River Breeding Laboratories are used in these experiments. The rats are housed 3 animals/cage and food and water are allowed ad libitum. The animals are numbered 1-3 in each cage and color marked for identification purposes.
All reagents and drugs are prepared just prior to the study. Crystallized and lyophilized bovine serum albumin (BSA), available from Sigma Chemical Company, is solubilized without shaking in cold, sterile, pyrogen-free saline (10 mg/ml). Lyophilized anti-bovine serum albumin (IgG fraction), obtained from Cappel Laboratories, is suspended in sterile distilled water and diluted with cold, pyrogen-free saline (PFS) just prior to use. […]
Groups of animals (6/group) are dosed with drug in MC by gavace once daily for 3 days. […] The volume of mercury displaced is converted to weight and recorded. This value is considered to be the control reading for the animal. Paw volumes are subsequently recorded with a plethysmograph during the development of the inflammation at 2 and 4 hours post-challenge.
Results are expressed by the chance in paw volume (Δ paw volume) from the control reading for each animal to that recorded 2 and 4 hours post-challenge. […] Differences from control in drug-treated groups are expressed as percent change from control are determined.

O=c1ccc2ccc(OCc3ccccc3)nc2n1Cc1ccccc1 [1-benzyl-7-benzyloxy-[1,8]naphthyridin-2-one]
antibacterial activity [1]: inactive

O=c1c(CCO)cc2cccnc2n1-c1cccc(Cl)c1 [B]
% Inhibition of anaphylactic bronchospasm (peak increase in intratracheal pressure) ([2]; dose p.o. 2 mg/kg): 79%

O=c1c(CCO)cc2cccnc2n1-c1ccccc1 [Compound A, 3-(2-Hydroxyethyl)-1-phenyl-1,8-naphthyridin-2(1H)-one]
% Inhibition of anaphylactic bronchospasm (peak increase in intratracheal pressure) ([2]; dose p.o. 5 mg/kg): 78% | ED50 [3]: ~5 mg/kg | reduction of spleen weight [4]: 92% | ED30 [5]: < 25 mg/kg

COCCOc1c(C)c2cccnc2n(-c2ccccc2)c1=O [Compound C]
% Inhibition of anaphylactic bronchospasm (peak increase in intratracheal pressure) ([2]; dose p.o. 5 mg/kg): 25% | % inhibition (Δ paw volume) after 2 hours ([6]; 2 hours post-challenge): 74% | % inhibition (Δ paw volume) after 4 hours ([6]; 4 hours post-challenge): 36%
